Measurements taken from patent US20070142298A1, “Tetrapeptide regulating blood glucose level in diabetes mellitus” (SANKT-PETERBURGSKAYA OBSCHESTVENNAYA ORGANIZATSIYA …, priority 2003, published 2007).
Residues, ends and D or L forms follow the SMILES beside them.

What was measured:
Type in all cases: in vivo
[1] = tested on: rats with alloxan diabetes; assay: Course of alloxan diabetes in rats, treatment variant (Example 2)
Method: After estimation of glucose concentration in the blood all the animals were divided at random into 2 groups. Then all the animals were exposed to single intravenous administration 1 ml of alloxan solution (“Spofa”) in dose 35 mg/kg. In 15 days control animals were administered once a day intraperitoneally with 0.3 ml 0.9% NaCl solution, rats of the main group were administered with LysGlu-Asp-Trp-NH2 in dose 3 μg (in 0.3 ml of 0.9% NaCl solution) per rat during 11 days.

[2] = tested on: rats with alloxan diabetes; assay: Course of alloxan diabetes in rats, prophylaxis and treatment variant (Example 3)
Method: The experiment was carried out on 15 white mongrel male rats with the average body weight 375±35 g. The animals were divided randomly into 2 groups. Control animals were administered once a day intravenously with 0.3 ml of 0.9% NaCl solution, while the main group animals were administered with LysGlu-Asp-Trp-NH2 tetrapeptide in dose of 3 μg (in 0.3 ml of 0.9% NaCl solution) per rat during 7 days. After that all the animals were subject to single intravenous administration of 1 ml of alloxan solution (“Spofa”) in dose 35 mg/kg. Lys-Glu-Asp-Trp-NH2 tetrapeptide had been administered during 3 days following alloxan administration. After that […] were subject to the second Lys-Glu-Asp-Trp-NH2 tetrapeptide course from 18 day till day 28 (total 11 days) in the same dose.

[3] = tested on: rats with alloxan diabetes; assay: Glucose tolerance test (sugar curve) in alloxan diabetes rats (Example 6); conditions: 44th day after course completion
Method: The study was conducted on 13 male rats, enrolled in the previous tests (treatment variants—44 days after completion of tetrapeptide Lys-Glu-Asp-Trp-NH2 administration). 7 healthy rats with the same body weight constituted a separate group. All the animals were administered intravenously with 1 ml of 2% glucose solution, after that glucose concentration in their blood was estimated.

[4] = tested on: patients with diabetes mellitus; assay: Clinical application in patients with diabetes mellitus (Example 8)
Method: The investigation was carried out in 36 patients aged from 16 to 83 years (7 men, 29 women). In 23 patients there was diagnosed type 1 diabetes, in 13 patients—type 2 diabetes. The disease duration varied from 1 year to 30 years. 32 patients received insulin. The majority of the patients suffering diabetes mellitus entered the hospital decompensated. Blood glucose level in these patients on an empty stomach oscillated from […]; the glycosylated haemoglobin—from 7.8 to 12.7%. All the patients were prescribed a rigid diet. All the patients were stratified randomly into 2 groups, with respect to age, sex, duration and stage of the disease (Table 7). Alongside with standard method of treatment 16 patients were prescribed Lys-Glu-Asp-Trp-NH2 tetrapeptide in dose of 10 μg (in 1 ml of 0.9% NaCl solution) intramuscularly once a day for 10 days. 4 patients suffering type 2 diabetes mellitus were prescribed together with standard treatment course Lys-Glu-Asp-Trp-NH2 tetrapeptide in dose of 100 μg (1 tablet) twice a day before meals during 10 days. Patients of the control group were administered with 1 ml of 0.9% of NaCl solution as a placebo following the same scheme.

[5] = tested on: rats with alloxan diabetes; assay: Insulin effect on blood glucose level in alloxan diabetes rats after tetrapeptide (Example 7)
Method: The study was conducted on 13 male rats, enrolled in the previous trial (treatment variant—28 days after completion of Lys-Glu-Asp-Trp-NH2 tetrapeptide administration). 8 healthy rats of the similar body weight constituted a separate group. All the animals were administered intravenously with insulin (0.3 units), and glucose concentration in their blood was estimated hereafter.

[6] = tested on: rats with alloxan diabetes; assay: Tetrapeptide in different doses on the course of alloxan diabetes in rats (Example 4); conditions: for Glucose concentration in blood, initial level: before alloxan; for Glucose concentration in blood, after tetrapeptide administration, day 1 / Glucose concentration in blood, after tetrapeptide administration, day 4 / Glucose concentration in blood, after tetrapeptide administration, day 7 / Glucose concentration in blood, after tetrapeptide administration, day 14 / Glucose concentration in blood, after tetrapeptide administration, day 21: 7 days; for Decrease of glucose level: dose 10 μg
Method: The study was performed on 23 white mongrel male rats weighing on average […]. All the animals were subject to single intravenous administration of 1 ml of alloxan (“Spofa”) solution in dose of […].
Then the animals were divided at random into 3 groups. Control animals were intraperitoneally administered with 0.3 ml of 0.9% NaCl solution once a day. Rats of the second and third group were administered with tetrapeptide Lys-Glu-Asp-Trp-NH2 in dose of 1 μg (in 0.1 ml of 0.9% NaCl solution) and 10 μg (in 1.0 ml of 0.9% NaCl solution) per rat during 7 days.

[7] = tested on: rats with alloxan diabetes; assay: Insulin level in blood of rats with alloxan diabetes (Example 5)
Method: The experiment was held on 18 white mongrel male rats weighing on average 375±35 g. After the estimation of the blood glucose level all the animals were divided at random into 2 groups. Then all the animals were subjected to single intravenous injection with 1 ml of alloxan solution (“Spofa”) in dose of 35 mg/kg. 15 days later control animals were daily intraperitonealy administered with 0.3 ml of 0.9% NaCl solution, rats of the main group—with tetrapeptide Lys-Glu-Asp-Trp-NH2 in dose of 3 μg (in 0.3 ml of 0.9% NaCl) per rat during 11 days.

[8] = 3 μg per rat i.p. daily, 11 days
[9] = before alloxan and before treatment
[10] = 16 insulin-treated patients, 10 μg i.m. once a day, 10 days

NCCCC[C@H](N)C(=O)N[C@@H](CCC(=O)O)C(=O)N[C@@H](CC(=O)O)C(=O)N[C@@H](Cc1c[nH]c2ccccc12)C(N)=O [Tetrapeptide Lys-Glu-Asp-Trp-NH2, lysyl-glutamyl-aspartyl-tryptophane amid] (H-KEDW-NH2)
Glucose concentration in the blood, 8 days since the onset of tetrapeptide administration [1, 8]: 254.5 ± 16.2 mg %
Glucose concentration in the blood, upon completion of peptide administration, day 1 [1, 8]: 222.5 ± 10.3 mg %
Glucose concentration in the blood, upon completion of peptide administration, day 9 [1, 8]: 183.9 ± 10.5 mg %
Glucose concentration in the blood, upon completion of peptide administration, day 18 [1, 8]: 236.7 ± 10.3 mg %
Glucose concentration in the blood, upon completion of peptide administration, day 28 [1, 8]: 221.5 ± 11.2 mg %
Glucose concentration in the blood, upon completion of peptide administration, day 44 [1, 8]: 210.8 ± 9.3 mg %
Glucose concentration in the blood, upon completion of peptide administration, day 58 [1, 8]: 198.9 mg %
Glucose concentration in the blood, initial level [1, 9]: 81.1 ± 3.8 mg %
Glucose concentration in the blood, 15 days after alloxan administration ([1]; before start of tetrapeptide): 333.6 ± 12.4 mg %
Lethality decrease ([1]; vs control, alloxan diabetes animals): two-fold lethality decrease
Decrease of the blood glucose level throughout the whole study ([1]; vs control, range 30-47.7%): 38.4%
Glucose concentration in blood, after alloxan administration, day 28 ([2]; 2nd course (from 18th till 28th day)): 77.3 ± 1.3 mg %
Blood glucose level after the second course ([2]; 28th, 33rd, 40th day): complete normalisation of the blood glucose level
Glucose concentration in blood, after alloxan administration, day 5 ([2]; after 1st course): 247.3 ± 17.2 mg %
Glucose concentration in blood, after alloxan administration, day 14 ([2]; after 1st course): 261.5 ± 39.5 mg %
Glucose concentration in blood, after alloxan administration, day 33 ([2]; after 2nd course): 90.7 ± 5.2 mg %
Glucose concentration in blood, after alloxan administration, day 40 ([2]; after 2nd course): 107.7 ± 6.4 mg %
Glucose concentration in blood, initial level ([2]; before treatment): 76.8 ± 1.1 mg %
Glucose concentration in blood, after alloxan administration, day 21 ([2]; during 2nd course (from 18th till 28th day)): 159.0 ± 32.6 mg %
Glucose concentration in blood, 7 days from the onset of tetrapeptide administration (1 course) ([2]; healthy rats before alloxan, 3 μg per rat daily): 94.0 ± 0.8 mg %
Effect on blood glucose level of healthy animals ([2]; healthy rats, 7 days, before alloxan): did not lead to the decrease of blood glucose level
Glucose tolerance test, 5 min after glucose administration [3]: 301.2 ± 10.5
Glucose tolerance test, 30 min after glucose administration [3]: 205.1 ± 11.8
Glucose tolerance test, 60 min after glucose administration [3]: 201.5 ± 13.2
Glucose tolerance test, 120 min after glucose administration [3]: 164.2 ± 12.8
Glucose tolerance test, initial level ([3]; before i.v. 1 ml of 2% glucose): 210.8 ± 9.3
Reduction of the insulin daily dose, on average ([4]; 8 patients out of 16 treated with insulin): 8 units
Decreased insulin dose necessary to achieve compensation (number of patients) [4, 10]: 8
Increased insulin dose necessary to achieve compensation (number of patients) [4, 10]: 2
The same insulin dose necessary to achieve compensation (number of patients) [4, 10]: 6
Decrease of daily insulin dose as compared to the initial level ([4]; Patient K.): 26 units
Coagulogram indices ([4]; Patient K., at discharge): pronounced improvement in coagulogram indices
Blood glucose level on an empty stomach at discharge ([4]; Patient K., type 2, 10 μg i.m. 10 days, 18th day, 10 μmol/l on admission): 5.9 mM
Daily dose of insulin at discharge ([4]; Patient K., 82 units on admission): 56 units
Blood glucose level after completion of the treatment course ([4]; Patient L.): remained within the norm
Dose of diabeton ([4]; Patient L.): reduced two-fold
Glucose level on an empty stomach on the second day ([4]; Patient L., type 2, oral 100 μg twice a day with 2 diabeton tablets, 11 μmol/l on admission): 6 mM
Decrease of daily insulin dose as compared to the initial level ([4]; Patient M.): 8 units
Daily norm of insulin at discharge ([4]; Patient M., 40 units on admission): 32 units
Compensation in patients treated with oral anti-diabetic medicine ([4]; tetrapeptide in tablets): full compensation
Reduction of the dose of insulin ([4]; tetrapeptide in tablets, 100 μg twice a day, 10 days): 25 units
Reduction of dose of oral anti-diabetic preparations ([4]; tetrapeptide in tablets, patients on oral anti-diabetic medicine): reduced practically two-fold
Glucose concentration in blood, initial level ([5]; 28th day after course completion, before insulin): 221.5 ± 11.2 mg %
Glucose concentration in blood, 30 minutes after insulin administration ([5]; 28th day after course completion, insulin 0.3 units i.v.): 123.6 ± 8.3 mg %
Decrease of the glucose level after insulin administration as compared to the control group ([5]; alloxan diabetes animals): nearly two-fold decrease of the glucose level
Glucose concentration in blood, after alloxan administration, day 7 ([6]; 1 mkg group): 245.6 ± 12.3 mg %
Glucose concentration in blood, after alloxan administration, day 14 ([6]; 1 mkg group): 261.7 ± 12.3 mg %
Glucose concentration in blood, initial level ([6]; 1 mkg group): 80.6 ± 2.8 mg %
Glucose concentration in blood, after tetrapeptide administration, day 1 ([6]; 1 mkg per rat): 228.3 ± 10.7 mg %
Glucose concentration in blood, after tetrapeptide administration, day 4 ([6]; 1 mkg per rat): 244.4 ± 12.2 mg %
Glucose concentration in blood, after tetrapeptide administration, day 7 ([6]; 1 mkg per rat): 269.4 ± 8.6 mg %
Glucose concentration in blood, after tetrapeptide administration, day 14 ([6]; 1 mkg per rat): 268.8 ± 12.4 mg %
Glucose concentration in blood, after tetrapeptide administration, day 21 ([6]; 1 mkg per rat): 272.5 ± 9.9 mg %
Glucose concentration in blood, after alloxan administration, day 7 ([6]; 10 mkg group): 247.2 ± 14.0 mg %
Glucose concentration in blood, after alloxan administration, day 14 ([6]; 10 mkg group): 252.2 ± 7.9 mg %
Glucose concentration in blood, initial level ([6]; 10 mkg group): 83.9 ± 3.4 mg %
Glucose concentration in blood, after tetrapeptide administration, day 1 ([6]; 10 mkg per rat): 193.3 ± 6.7 mg %
Glucose concentration in blood, after tetrapeptide administration, day 4 ([6]; 10 mkg per rat): 212.2 ± 7.3 mg %
Glucose concentration in blood, after tetrapeptide administration, day 7 ([6]; 10 mkg per rat): 205.6 ± 8.4 mg %
Glucose concentration in blood, after tetrapeptide administration, day 14 ([6]; 10 mkg per rat): 240.0 ± 7.9 mg %
Glucose concentration in blood, after tetrapeptide administration, day 21 ([6]; 10 mkg per rat): 248.3 ± 13.5 mg %
Decrease of glucose level ([6]; day 1): 30%
Decrease of glucose level ([6]; day 7): 26%
Insulin content in blood, 8 days since the onset of tetrapeptide administration [7, 8]: 3.1 ± 1.1 mkIU/ml
Insulin content in blood, after the completion of tetrapeptide administration, day 1 [7, 8]: 3.6 ± 0.7 mkIU/ml
Insulin content in blood, after the completion of tetrapeptide administration, day 9 [7, 8]: 3.2 ± 0.5 mkIU/ml
Insulin content in blood, after the completion of tetrapeptide administration, day 18 [7, 8]: 4.3 ± 0.5 mkIU/ml
Insulin content in blood, after the completion of tetrapeptide administration, day 28 [7, 8]: 4.1 ± 0.6 mkIU/ml
Insulin content in blood, after the completion of tetrapeptide administration, day 44 [7, 8]: 3.9 ± 1.1 mkIU/ml
Insulin content in the blood relative to control group ([7]; 8 days of administration, higher than control): 3.9 fold
Amount of insulin in the blood at following estimations ([7]; after course completion, no insulin in controls): 13-18%
Insulin content in blood, initial level [7, 9]: 23.8 ± 2.8 mkIU/ml
Insulin content in blood, 15 days after alloxan administration ([7]; before start of tetrapeptide): 1.5 ± 0.4 mkIU/ml
